Measurements published in patent US20020156013A1, “Asthma associated factors as targets for treating atopic allergies including asthma and related disorders” (priority 1997, published 2002).

Tests used:
[1] = system: Elk (a target of the MAPK pathway); experiment: PathDetect signal transduction pathway reporting system (GAL4-Elk luciferase reporter) with activated M-Ras mutants; assay type: cell-based; details: HEK293 cells, GAL4-Elk fusion
Text: In order to characterize the pathway stimulated by activated M-Ras, applicants tested the ability of activated mutants to up-regulate the mitogen-activated protein kinase (MAPK) pathway or the c-Jun N-terminal kinase (JNK) pathway using an in vitro signal transduction pathway reporting system (FIG. 11). This luciferase-based assay allows for indirect measurement of Elk (target of the MAPK pathway) or Jun (target of the JNK pathway) protein activation. Activated MEK1, which activates Elk, served as a positive control for the MAPK pathway whereas activated MEKK was used as a positive control for the JNK pathway because it activates Jun.
The results of this experiment are shown in FIG. 12 for the MAPK pathway. […] In addition, M-Ras-1, M-Ras-2 and M-Ras-3 mutants activated Elk, indicating M-Ras induced activation of the MAPK pathway.
To characterize the activation pathway triggered by activated M-Ras, the ability of the M-Ras mutants described in Example 8 to activate the mitogen-activated protein kinase (MAPK) pathway or the c-JUN N-terminal Kinase (JNK) pathway was tested using the PathDetect in vivo signal transduction pathway reporting system (Stratagene). […] As expected, significant luciferase activity was detected when cells expressed the GAL4-Elk fusion protein together with activated MEK-1. […]

[2] = system: TS2 cells; experiment: Cytokine-induced proliferation of TS2 cells (tritiated thymidine); assay type: cell-based, murine
Protocol: TS2 cells were grown in DMEM medium supplemented with 10% fetal calf serum, 50 μM 2-mercaptoethanol, 0.55 mM L-arginine, 0.24 mM L-asparagine and 1.25 mM L-glutamine.
The murine T-cell line TS2 grows in response to IL-2 and IL-9 in vitro. […] Cells which were maintained in medium described in Example 1 plus IL-2, were washed once with phosphate-buffered saline and plated at 3000 cells per well in the presence of 200 U/ml IL-2 or 200 U/ml of IL-9. Cells were grown for three days in the presence of […] (10 μM) and then pulsed for four hours with tritiated thymidine. The cells were then harvested onto glass fiber filters and analyzed by scintillation counting.
The data is shown as percent growth as compared to cytokine only.

[3] = system: BaF3 cells; experiment: Proliferation of BaF3 cells transfected with wild-type or constitutively active mutant M-Ras; assay type: cell-based, murine
Protocol: To assess the ability of M-Ras to be able to exert a constitutive activity on cellular proliferation and to abrogate the requirement of cytokines in a cytokine-dependent cell line, site directed mutagenesis was used to generate mutant M-Ras proteins to assess their activities. Alignment of M-Ras to the H- and K-Ras proteins permitted identification of potential residues that may result in constitutive activation of M-Ras. Two mutants were prepared at codon 22, substituting a Val or Lys for Gly while another mutant was prepared at codon 71 substituting a Lys for Glu. These substitutions had been previously shown to result in active Ras molecules (FIG. 8). […] Mutant Ras cDNA was then cloned into the NotI-XbaI cloning site of the mammalian expression vector pEF-BOS which contains a puromycin resistance gene for selection of transfected cells. These expression vectors were then transfected into the IL-3 dependent cell line BaF3 and it was assayed for cytokine-independent growth. BaF3 cells were transfected with the three mutant M-Ras vectors, the wild type M-Ras vector or an empty vector by electroporation using the Gene Pulsar II (Bio-Rad). The settings used were […], 74 ohms and 300 volts with 50 μg of sterile DNA. Pooled transfected cells were selected with puromycin (3 μg/ml) and M-Ras expression was determined by Northern blot. All constructs expressed equivalent amounts of exogenous M-Ras.
The murine T-cell line TS2 grows in response to IL-2 and IL-9 in vitro. […] In addition, the MAPK inhibitor PD98059 has the ability to block M-Ras signaling as described in Example 10. […] Cells which were maintained in medium described in Example 1 plus IL-2, were washed once with phosphate-buffered saline and plated at 3000 cells per well in the presence of 200 U/ml IL-2 or 200 U/ml of IL-9. […] The cells were then harvested onto glass fiber filters and analyzed by scintillation counting.
Cells were plated at 3000 cells/well in the presence or absence of IL-3 and 10 μm PD98059 and assessed for proliferation as described in Example 12. […]

[4] = system: ERK1, 2 or 5 family or JNK family of MAPK; details: Lee et al., 1994; Gallagher et al., 1997; cited from earlier work
[5] = target: p38 MAPK (Homo sapiens, UniProt Q16539); details: Lee et al., 1994; Gallagher et al., 1997; cited from earlier work
p38 MAPK, sequence (Q16539 whole entry): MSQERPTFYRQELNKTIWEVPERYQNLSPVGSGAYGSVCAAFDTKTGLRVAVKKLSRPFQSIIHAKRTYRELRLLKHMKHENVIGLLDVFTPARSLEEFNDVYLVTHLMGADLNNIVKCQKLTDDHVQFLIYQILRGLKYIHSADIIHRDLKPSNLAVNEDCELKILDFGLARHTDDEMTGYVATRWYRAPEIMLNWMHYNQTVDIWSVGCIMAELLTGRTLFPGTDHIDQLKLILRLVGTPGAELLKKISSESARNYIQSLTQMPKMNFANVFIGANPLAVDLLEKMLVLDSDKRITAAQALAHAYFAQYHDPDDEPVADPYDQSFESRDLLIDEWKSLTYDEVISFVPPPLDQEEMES

[6] = system: M-Ras; experiment: M-Ras induction in mitogen stimulated splenocytes (RT-PCR); assay type: cell-based, DBA2 mouse; details: DBA2 splenocytes, 5 ug/ml concanavalin A, 10 μg/ml aminosterol, 24 hours
Protocol: Splenocytes from the DBA2 bronchial hyperresponsive mouse were treated with aminosterol compounds to test for their ability to block the induction of M-Ras in response to mitogens. This group of aminosterols was identified from the liver of the dogfish shark and as a class appear to be antiproliferative. This series of aminosterols was assayed for their ability to inhibit M-Ras expression and TH2 activity in mitogen stimulated splenocytes from the DBA2 mouse.
Splenocytes were isolated from naive DBA2 mice by aseptic removal of spleens from anesthetized mice. Spleens were then minced by sterilized scissors and tissue was passed through a sterilized #60 wire mesh sieve. Cells were resuspended in RPMI medium and washed twice in the same medium. Cells were then resuspended in lysis buffer (4.15 g NaCl, 0.5 g KHCO3, 0.019 g EDTA in 500 ml of dH2O) to lyse red blood cells. Cells were incubated at 37° C. for 5 minutes and resuspended in RPMI plus heat inactivated 10% fetal bovine serum. Cells were then spun down and resuspended in RPMI growth media (as above) plus 5 ug/ml of concanavalin A. Cell cultures were treated with 10 μg/ml of the aminosterol compounds for 24 hours and were then harvested for RNA isolation using the Trizol method described by the manufacturer (Gibco-BRL). […]

[7] = system: TS2 cells; experiment: Proliferation of TS2 cells with lovastatin (3H-thymidine incorporation); assay type: cell-based, murine; details: Mus musculus, 72 h; IL-2 or IL-9 5 ng/ml, different concentrations of lovastatin, three days; maximal inhibition; read-out: inhibition of cellular proliferation of TS2 cells as compared to untreated cells
Protocol: To further test the role of M-Ras in IL-9 signaling, yet another IL-9 responsive cell line was treated with the farnesyl transferase inhibitor lovastatin to determine if the Ras pathway was utilized for proliferation. TS2 cells were washed three times and plated in 96-well plates at a density of 1,000 cells per well. IL-2 or IL-9 was added successively at a concentration of 5 ng/ml together with different concentrations of lovastatin as indicated. DMSO was included as the vehicle control. After three days, the rate of proliferation was determined by ^3H-thymidine incorporation ([…] per well) and percent of inhibition was obtained from the ratio between treated and untreated cells.

[8] = system: M-Ras; experiment: M-Ras prenylation in transfected BW5147 cells (immunoprecipitation, SDS-PAGE migration); assay type: cell-based, murine; details: BW5147 cells with pEF-BOS-M-Ras, 4 mg/ml lovastatin, three days, versus untreated
Protocol: BW5147, a murine thyoma cell line that grows in the absence of any cytokine, was stably transfected with an expression vector containing wild type M-Ras cDNA (pEF-BOS-M-Ras). After two weeks of selection in 3 μg/ml of Puromycin, cells were treated for three days with different compounds previously reported to work as inhibitors of p21 Ras prenylation. Cells were then harvested and proteins were extracted and immunoprecipitated with a rabbit antibody (JAL4) specific for M-Ras. Immunoprecipitates were electrophoretically resolved by SDS-PAGE (18%) and transferred to PVDF membrane. Immunoblots were successively probed with JAL4 antibody (1:1500 dilution) to detect the expression and migratory pattern of M-Ras protein. The non-prenylated form of p21 Ras migrates slower than the fully processed form. […] In contrast, cells transfected with pEF-BOS-M-Ras overexpressed the M-Ras protein.

[9] = system: TS1-RA3 cells; experiment: IL-9 induced proliferation of TS1-RA3 cells (acid phosphatase assay); assay type: cell-based, murine; details: grown in IL-9, varying amounts of manumycin A, 4 days; maximal inhibition
Protocol: Ras molecules have been previously shown to function after prenlylation via farnesyl transferase and subsequent attachment to the inner cytoplasmic membrane. To test the role of M-Ras in IL-9 signaling, IL-9 responsive cells were treated with the farnesyl transferase inhibitor manumycin A in a proliferation assay to determine if the Ras pathway was utilized for proliferation. TS1-RA3 cells, which are a murine TH2 lymphocyte cell line expressing human IL-9 receptor by a transfected expression construct, were grown in the presence of IL-9 and in the absence or in varying amounts of manumycin A for 4 days.

With `COc1cccc(-c2cc(=O)c3ccccc3o2)c1N` [PD98059] as the molecule, how does the “luciferase induction by M-Ras-1, M-Ras-2 and M-Ras-3 mutants” value [1] read?
Its value is “blocked”.

What about the “growth of cells grown in IL-2” value ([2]; 200 U/ml IL-2, inhibitor 10 μM, three days) of the same molecule?
Its value is “no inhibitory activity”.

What about the “growth of cells grown in IL-9” value ([2]; 200 U/ml IL-9, inhibitor 10 μM, three days) of the same molecule?
The value was “growth inhibited”.

What about the “proliferation of cells expressing the mutant M-Ras gene” value ([3]; BaF3, absence of IL-3, 10 μm PD98059) of the same molecule?
Its value is “blocked”.

What about the “IL-3 induced cellular proliferation of M-Ras wild-type transfected cells” value ([3]; BaF3, with IL-3, 10 μm PD98059) of the same molecule?
The value was “no activity”.

What about the “proliferation of mutant M-Ras cells grown with IL-3 (cellular toxicity check)” value ([3]; BaF3, with IL-3, 10 μm PD98059) of the same molecule?
Its value is “could proliferate”.

Which results are given for `Oc1ccc(-c2nc(-c3ccncc3)c(-c3ccc(F)cc3)[nH]2)cc1` [SB202190]?
inhibition of ERK1, 2 or 5 family or JNK family of MAPK [4]: not; inhibition of p38 MAPK [5]: specifically inhibit; ability of TS2 cells to proliferate in response to IL-2 ([2]; IL-2, percent growth compared to cytokine only): not; ability of TS2 cells to proliferate in response to IL-9 ([2]; IL-9, percent growth compared to cytokine only): blocked

For `CC(C)[C@@H](CC[C@@H](C)[C@H]1CC[C@H]2[C@@H]3[C@H](O)C[C@H]4C[C@@H](NCCCNCCCCNCCCN)CC[C@]4(C)[C@H]3CC[C@]12C)OS(=O)(=O)O` [compound 1436], which “expression of M-Ras” value [6] is on record?
The value was “no effect”.

For `CC[C@H](C)C(=O)O[C@H]1C[C@@H](C)C=C2C=C[C@H](C)[C@H](CC[C@@H]3C[C@@H](O)CC(=O)O3)[C@H]21` [lovastatin], which inhibition at 0.005 µg/mL [7] is on record?
The inhibition at 0.005 µg/mL was at most 95%.

What about the “migration of M-Ras protein on SDS-PAGE (non-prenylated form migrates slower)” value [8] of the same molecule?
Its value is “migrated higher”.

With `CCCC[C@@H](C)/C=C(C)/C=C(\C)C(=O)NC1=C[C@@](O)(/C=C/C=C/C=C/C(=O)NC2=C(O)CCC2=O)[C@@H]2O[C@@H]2C1=O` [manumycin A] as the molecule, how does the “inhibition of cellular proliferation of TS1-RA3 cells as compared to untreated cells” value [9] read?
The value was “up to 76%”.
